For one data set, the target named is T1, ETA (Homo sapiens, UniProt P25101).
T1 sequence (P25101 21-427): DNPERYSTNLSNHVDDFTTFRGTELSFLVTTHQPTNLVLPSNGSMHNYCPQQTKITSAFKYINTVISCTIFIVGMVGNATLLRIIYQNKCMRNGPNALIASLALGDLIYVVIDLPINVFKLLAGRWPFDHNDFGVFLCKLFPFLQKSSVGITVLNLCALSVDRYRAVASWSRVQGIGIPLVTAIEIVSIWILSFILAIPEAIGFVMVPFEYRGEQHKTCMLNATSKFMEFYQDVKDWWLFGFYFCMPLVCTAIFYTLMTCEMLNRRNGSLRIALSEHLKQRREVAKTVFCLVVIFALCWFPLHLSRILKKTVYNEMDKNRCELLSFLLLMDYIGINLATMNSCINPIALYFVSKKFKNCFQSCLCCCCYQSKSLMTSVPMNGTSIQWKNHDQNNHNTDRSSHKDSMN
Description: Functional potency for ETA receptor. The data set is classed as biochemical. An excerpt:
(§1) In the above table, the physicochemical data, e.g., solubility, were obtained following standard protocols known in the field (see, e.g., Reis et al., Mini Rev Med Chem., 2010, 10(11):1071-6; Avdeef et al., Expert Opin Drug Metab Toxicol., 2005, 1(2):325-42; Bharate et al., Comb Chem High Throughput Screen., 2016, 19(6):461-9; and Jain et al., J Pharm Biomed Anal., 2013, 86:11-35.); and the biochemical data, i.e., potency for ETA/ETB, were obtained following the protocols known in the field (see, e.g., Kirkby et al., Br J Pharmacol., 2008, 153(6):1105-19; and Maguire et al., Br J Pharmacol., 2014, 171(24):5555-72.).

The nature of data set [1]: Solubility (pH 2, pH 7, ethyl acetate). The data set is classed as physicochemical.
Source text: as §1

The next data set is described as follows: Stability in solid state. The data set is classed as physicochemical. Conditions: 2 h@125° C.
Source text: as §1

A further data set can be described thus: Permeability (PAMPA). The data set is classed as in vitro ADME. To be noted: PAMPA log Pe and PSA.
Source text: as §1

For data set [2], the system named is Morrison's rat model of glaucoma (elevated IOP). Description: Morrison's rat model of glaucoma (RGC counts, PERG). The data set is classed as in vivo, Brown Norway rats. To be noted: topical eye drops 100 μg per dose, five days a week, four weeks. An excerpt:
Adult male and female retired breeder Brown Norway rats (approximate age groups of 8 to 11 months) were obtained from Envigo (Indianapolis, IN). Baseline IOP measurements and pattern electroretinogram (PERG) amplitudes were collected prior to the surgery for elevation of IOP (to ensure that the IOP and PERG amplitudes were in the expected range of values). IOP was elevated in one eye (left eye) of the rats, while the corresponding right eyes served as contralateral controls. The Morrison method to elevate IOP in rats was carried out by injection of 50 μL. of hypertonic saline through the episcleral veins to sclerose the trabecular meshwork. IOP was measured twice a week throughout the entire duration of the experiment. […] After detecting an elevation of IOP for two consecutive days, topical administration of eye drops (20 μL (100 μg) per dose of the tested compounds in the IOP elevated eye) was commenced and carried out for five days a week for a total of four weeks. In the 4th week of treatment, PERG analysis was carried out and rats were sacrificed by an overdose of pentobarbital (Fatal-Plus). Aqueous humor was collected from the rat eyes, frozen and shipped for analysis. Retinal flat mounts were prepared, immunostained with the RGC marker, Brn3a antibody and surviving RGCs were counted in two eccentricities (central and peripheral).
For this study, the Morrison's model was used to induce ocular hypertension in adult male retired breeder Brown Norway rats as previously described by Morrison et al., (Morrison J C, Moore C G, Deppmeier L M, Gold B G, Meshul C K, Johnson E C. A rat model of chronic pressure-induced optic nerve damage. Exp Eye Res. 1997; 64(1):85-96).
The immunostained retinal flat mounts were obtained to measure the retinal ganglion cell (RGC) counts. To obtain immunostained retinal flat mounts, the animals were euthanized after the treatments and then their eyes were enucleated. The eye cups were fixed overnight at 4° C. in 4% paraformaldehyde (PFA) and retinal flat mounts were prepared for collecting images. The retinal ganglion cell (RGC) counting was conducted using the images of immunostained retinal flat mounts. The images were uploaded to ImageJ, a photo editor designed for biology research (Rasband, 1997-2018) and the labeled retinal ganglion cells were counted manually in two eccentricities (central and peripheral).
Pattern ERG (PERG) was used to assess the RGC function. […] Briefly, PERG signals were acquired from a DTL-plus electrode placed on the lower part of the corneal surface and the PERG waves were analyzed using the EMWIN software (LKC). The difference between the amplitude of the major positive (P1) and negative (N2) waves were calculated to decipher the PERG amplitude.

Data set [3] in a line: Pharmacokinetics after topical or oral administration in the rat. The data set is classed as in vivo, Brown Norway rats. On the procedure: After the administrations, the animals (N=2) were euthanized at different time points (e.g. 4 and 8 hours) and tissues were collected for analysis. List of tissues collected include plasma, retina/retinal pigment epithelium (RPE)/choroid, vitreous humor and aqueous humor.

Another data set deals with ETA/ETB receptor. Conditions: background statement; cited from earlier work.

Entries after “also recorded” stand apart in the source; their conditions may differ.

Here are results for one molecule from patent publication US20260076948A1, “TREATMENT OF DIABETIC RETINOPATHY USING ENDOTHELIN RECEPTOR ANTAGONISTS” (Perfuse Therapeutics, Inc., priority 2019, published 2026).

Turning to `CCCCCS(=O)(=O)N(CCC)CCN1C[C@H](c2ccc3c(c2)OCO3)[C@@H](C(=O)O)[C@@H]1c1ccc(OC)c(F)c1` [A-182086, (2R,3R,4S)-4-(2H-1,3-benzodioxol-5-yl)-2-(3-fluoro-4-methoxyphenyl)-1-[2-(N-propylpentane-1-sulfonamido)ethyl]pyrrolidine-3-carboxylic acid], the “Functional potency for ETA and ETB receptors, rating in words” value at ETA is “High potency”. Further, the “Specificity ETA versus ETB, rating in words” value at ETA (ETA vs ETB) is recorded as “Low specificity”. For the same molecule, in data set [1] (ethyl acetate), the “Solubility in Ethyl Acetate, rating in words” value is “Good”. The “Solubility at pH 2, comparison in words” value in data set [1] (pH 2) was “superior to that of Edonentan”. For the same molecule, in the data set “Stability in solid state”, the “Stability in Solid State, in words” value was “unstable” and the “Stability in Solid State, remaining” value is “about 87% remaining/”. Further, in “Permeability (PAMPA)”, the “Permeability, rating in words” value is given as “Mid-High”. Further, in data set [2], the “Pattern electroretinogram (PERG) changes, RGC function” value is on record as “maintained RGC function” and the “Retinal ganglion cell (RGC) counts in the peripheral retina” value was “prevented RGC loss”. Moreover, the “Ocular exposure after topical administration (retina/RPE/choroid, aqueous humor, vitreous humor)” value in data set [3] (eye drop 100 μg, 4 and 8 hours) was “detected; also recorded: permeate through cornea/sclera and achieve retina exposure”. Besides, the “Detection in the retina/RPE/choroid after oral administration” value in data set [3] (oral, 50 mg/kg as printed) was “detectable”. Besides, in the data set on ETA/ETB receptor, the “Endothelin receptor antagonism, description in words” value is listed as “potent dual ETA/ETB receptor antagonist”.
